US20070093433A1, “Aminoglycoside antibiotics for use as vap-1/ssao inhibitors” (priority 2003, published 2007)

Legend:
VAP-1 [1] = target: T1, VAP-1 (Homo sapiens, UniProt Q16853); assay: SSAO (amine oxidase) activity of VAP-1 transfected cells, radiochemical [14C]-benzylamine and fluorometric Amplex Red H2O2 assays; assay type: cell-based; parameters: expressed in transfected cells; host or cells: Ax endothelial cells or CHO cells; conditions: for % of inhibition: VAP-1 transfected Ax endothelial or CHO cells, benzylamine substrate, 30 min pre-incubation at 37° C., agents at 1 mg/ml and 100 μg/ml (concentration not given), representative of 2 to 5 experiments; for effect on enzymatic (SSAO) activity of VAP-1, in words: VAP-1 transfected cells, summary of Table I
T1 sequence (Q16853 1-763): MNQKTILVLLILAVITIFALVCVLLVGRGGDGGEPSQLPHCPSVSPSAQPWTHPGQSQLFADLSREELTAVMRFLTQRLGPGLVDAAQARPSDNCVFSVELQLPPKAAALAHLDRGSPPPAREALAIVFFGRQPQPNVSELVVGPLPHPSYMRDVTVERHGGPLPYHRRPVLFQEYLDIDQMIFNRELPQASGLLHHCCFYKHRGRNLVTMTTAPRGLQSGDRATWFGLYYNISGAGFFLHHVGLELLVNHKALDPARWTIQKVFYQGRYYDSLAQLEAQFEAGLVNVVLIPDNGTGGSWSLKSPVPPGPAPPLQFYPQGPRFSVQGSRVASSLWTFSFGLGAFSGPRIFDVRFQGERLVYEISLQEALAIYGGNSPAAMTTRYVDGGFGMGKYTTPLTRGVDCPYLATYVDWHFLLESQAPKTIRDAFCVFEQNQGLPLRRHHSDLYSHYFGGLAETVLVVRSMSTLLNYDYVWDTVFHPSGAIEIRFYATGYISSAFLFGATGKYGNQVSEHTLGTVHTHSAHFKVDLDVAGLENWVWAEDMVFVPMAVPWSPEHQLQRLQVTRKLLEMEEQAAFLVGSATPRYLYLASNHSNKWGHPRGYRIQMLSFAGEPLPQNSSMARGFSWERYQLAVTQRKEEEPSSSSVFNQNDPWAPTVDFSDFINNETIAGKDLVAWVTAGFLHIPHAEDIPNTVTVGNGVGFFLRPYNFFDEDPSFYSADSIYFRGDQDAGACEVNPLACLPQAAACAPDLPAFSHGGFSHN
Procedure: Amine oxidase activity was assayed radiochemically using [7-^14C]-benzylamine hydrochloride (spec. act. 57 mCi/mmol, Amersham) as a substrate. In brief, the cells (VAP-1 transfected Ax endothelial cells or VAP-1 transfected CHO cells and their mock transfected controls) were seeded onto gelatin-coated 24-well tissue culture plates and allowed to reach confluence. Prior to experiments, the cells were rinsed twice with RPMI 1640 and pre-incubated 30 min at 37° C. in 0.3 ml RPMI-1640 medium containing amikacin, tobramycin, gentamicin, streptomicin or geneticin (1 mg/ml). The reaction was initiated by addition of 6 μmol/L [^14C]-benzylamine (40000 dpm) and terminated after 1 hour by citric acid. The aldehydes were extracted into toluene containing diphenyloxazole and the formation of [^14C]-labelled benzaldehyde was quantified by scintillation counting.
SSAO activity of the cells was also independently measured using Amplex Red reagent (10-acetyl-3,7-dihydroxyphenoxazine; Molecular Probes Europe BV), a highly sensitive and stable probe for H2O2. Cultured cells (VAP-1 transfected Ax endothelial cells or VAP-1 transfected CHO cells and their mock transfected controls) were rinsed with Krebs Ringer phosphate glucose (KRPG; 145 mM NaCl, 5.7 mM sodium phosphate, 4.86 mM KCl, 0.54 mM CaCl2, 1.22 mM MgSO4, 5.5 mM glucose, pH 7.35) and pre-incubated 30 min at 37° C. in 200 μl KRPG containing amikacin, tobramycin, gentamicin, netilmicin, streptomycin, geneticin, glucosamine, mannosamine, galactosamine, or puromycin (1 mg/ml and 100 μg/ml). Catalytic reaction was initiated by addition of benzylamine as substrates and H2O2-detecting mixture containing horseradish peroxidase (final concentration 0.8 U/ml) and Amplex Red reagent (60 μM). The plates were incubated for 1-2 hours at 37° C. in the final volume of 250 μl, the bathing medium was clarified by centrifugation and placed in aliquots (200 μl) into white non-phosphorescent microplates (Cliniplate). Fluorescence intensity of the samples was measured (excitation, 545 nm; emission, 590 nm; Tecan ULTRA fluoropolarometer) and H2O2 concentration was calculated from calibration curves generated by serial dilutions of either standard H2O2 or resorufin, the product of the Amplex Red reaction (Molecular Probes).

VAP-1 [2] = target: T1, VAP-1; assay: Tobramycin serum concentration after intravenous injection in VAP KO+TG versus VAP KO mice (fluorescence polarization immunoassay); assay type: in vivo, mouse; parameters: expressed in transfected cells; host or cells: mTIEhVAP-1 transgenic / mouse VAP-1 knockout mice (VAP KO+TG), expression on vasculature; conditions: 3 mg/kg intravenously
Description: The mTIEhVAP-1 line E35 mice expressing human VAP-1 on vasculature were crossed to VAP-1 knockout mice that were previously created by using conventional gene targeting techniques to replace the mouse VAP-1 gene with a nonfunctional mutant-allele. The mTIEhVAP-1 transgene, mouse VAP-1 mutant-allele and endogenous mouse VAP-1 allele were all identified by PCR screening of purified genomic DNA with specific primers and verified immunohistochemically with human and mouse VAP-1 antibodies.
These mice and VAP KO mice as controls received intravenously tobramycin 3 mg/kg and tobramycin concentration from serum was measured after 30 min, 1, 2 and 3 hours after injections using fluorescence polarization immunoassay.

Molecule: NCC[C@H](O)C(=O)N[C@@H]1C[C@H](N)[C@@H](O[C@H]2O[C@H](CN)[C@@H](O)[C@H](O)[C@H]2O)[C@H](O)[C@H]1O[C@H]1O[C@H](CO)[C@@H](O)[C@H](N)[C@H]1O [Amikacin, amikacin]
- % of inhibition (VAP-1 [1]): 84%
- effect on enzymatic (SSAO) activity of VAP-1, in words (VAP-1 [1]): diminished to variable extent

Molecule: N[C@H]1C(O)O[C@H](CO)[C@H](O)[C@@H]1O (some centres unmarked) [Galactosamine, galactosamine]
- % of inhibition (VAP-1 [1]): 12%
- effect on enzymatic (SSAO) activity of VAP-1, in words (VAP-1 [1]): did not significantly inhibit

Molecule: CN[C@@H]1[C@@H](O)[C@@H](O[C@@H]2[C@@H](O)[C@H](O[C@H]3O[C@H]([C@@H](C)O)[C@@H](O)[C@H](O)[C@H]3N)[C@@H](N)C[C@H]2N)OC[C@]1(C)O [Geneticin, geneticin]
- % of inhibition (VAP-1 [1]): 46%

Molecule: N[C@H]1C(O)O[C@H](CO)[C@@H](O)[C@@H]1O (some centres unmarked) [Glucosamine, glucosamine]
- % of inhibition (VAP-1 [1]): 0%
- effect on enzymatic (SSAO) activity of VAP-1, in words (VAP-1 [1]): did not significantly inhibit

Molecule: N[C@@H]1C(O)O[C@H](CO)[C@@H](O)[C@@H]1O (some centres unmarked) [Mannosamine, mannosamine]
- % of inhibition (VAP-1 [1]): 20%
- effect on enzymatic (SSAO) activity of VAP-1, in words (VAP-1 [1]): did not significantly inhibit

Molecule: CCN[C@@H]1C[C@H](N)[C@@H](O[C@H]2OC(CN)=CC[C@H]2N)[C@H](O)[C@H]1O[C@H]1OC[C@](C)(O)[C@H](NC)[C@H]1O [Netilmicin, netilmicin]
- % of inhibition (VAP-1 [1]): 45%
- effect on enzymatic (SSAO) activity of VAP-1, in words (VAP-1 [1]): diminished to variable extent

Molecule: COc1ccc(C[C@H](N)C(=O)N[C@H]2[C@@H](O)[C@H](n3cnc4c(N(C)C)ncnc43)O[C@@H]2CO)cc1 [Puromycin, puromycin]
- % of inhibition (VAP-1 [1]): 59%
- effect on enzymatic (SSAO) activity of VAP-1, in words (VAP-1 [1]): diminished to variable extent

Molecule: [H]/N=C(/N)N[C@H]1[C@H](O)[C@@H](O)[C@H](O[C@@H]2O[C@@H](C)[C@](O)(C=O)[C@H]2O[C@@H]2O[C@@H](CO)[C@H](O)[C@@H](O)[C@@H]2NC)[C@@H](N/C(N)=N\[H])[C@@H]1O [Streptomicin, streptomycin]
- % of inhibition (VAP-1 [1]): 5%

Molecule: NC[C@H]1O[C@H](O[C@H]2[C@H](O)[C@@H](O[C@H]3O[C@H](CO)[C@@H](O)[C@H](N)[C@H]3O)[C@H](N)C[C@@H]2N)[C@H](N)C[C@@H]1O [Tobramycin, tobramycin]
- % of inhibition (VAP-1 [1]): 78%
- effect on enzymatic (SSAO) activity of VAP-1, in words (VAP-1 [1]): diminished to variable extent
- tobramycin concentration in serum, VAP KO+TG mice compared with VAP KO mice (VAP-1 [2]; at 2 and 3 hours, mice expressing human VAP-1 vs VAP KO mice): lower concentrations
- difference in serum tobramycin concentration between VAP KO mice and VAP KO+TG mice (VAP-1 [2]; at 3 hours): two fold

Molecule: gentamicin
- % of inhibition (VAP-1 [1]): 46%
- effect on enzymatic (SSAO) activity of VAP-1, in words (VAP-1 [1]): diminished to variable extent
